Results: patent US20230150953A1, “SUBSTITUTED ISOPHTHALIC ACID DIAMIDES” (Bayer Aktiengesellschaft, priority 2020, published 2023)

How the values were obtained:
Format in all cases: in vivo
[1] = tested on: POLCO Polygonum convolvulus; assay: Pre-emergence herbicidal action against harmful plants; conditions: 80 g/ha, scored visually after 3 weeks vs untreated controls
Text: (§1) The abbreviations used for the harmful plants mean: • ABUTH Abutilon theophrasti ALOMY Alopecurus myosuroides • AVEFA Avena fatua AMARE Amaranthus retroflexus • CYPES Cyperus esculentus DIGSA Digitaria sanguinalis • ECHCG Echinochloa crus-galli HORMU Hordeum murinum • LOLMU Lolium multiflorum LOLRI Lolium rigidum • MATIN Matricaria inodora PHBPU Pharbitis purpurea • POLCO Polygonum convolvulus SETVI Setaria viridis • STEME Stellaria media VERPE Veronica persica • VIOTR Viola tricolor 1. Pre-Emergence Herbicidal Action Against Harmful Plants Seeds of monocotyledonous and dicotyledonous weed plants and crop plants are laid out in sandy loam soil in wood-fiber pots and covered with soil. The compounds of the invention, formulated in the form of wettable powders (WP) or as emulsion concentrates (EC), are then applied to the surface of the covering soil in the form of an aqueous suspension or emulsion at a water application rate equivalent to 600 to 800 l/ha, with addition of 0.2% wetting agent. After the treatment, the pots are placed in a greenhouse and kept under good growth conditions for the trial plants. The damage to the test plants is scored visually after a test period of 3 weeks by comparison with untreated controls (herbicidal activity in percent (%): 100% activity=the plants have died, 0% activity=like control plants). […] The tables below illustrate, in an illustrative manner, the post-emergence herbicidal action of the compounds of the invention, the herbicidal activity being stated in percent.

[2] = tested on: DIGSA Digitaria sanguinalis; assay: as above; conditions: scored visually after 3 weeks vs untreated controls
Text: as §1

[3] = tested on: AMARE Amaranthus retroflexus; assay: as above; conditions: scored visually after 3 weeks vs untreated controls
Text: as §1

[4] = tested on: ECHCG Echinochloa crus-galli; assay: as above; conditions: scored visually after 3 weeks vs untreated controls
Text: as §1

[5] = tested on: ABUTH Abutilon theophrasti; assay: as above; conditions: scored visually after 3 weeks vs untreated controls
Text: as §1

MATIN Matricaria inodora [6] = assay: as above; conditions: scored visually after 3 weeks vs untreated controls
Text: as §1

[7] = tested on: AMARE Amaranthus retroflexus; assay: Post-emergence herbicidal action against harmful plants; conditions: one-leaf stage, assessed visually after about 3 weeks vs untreated controls
Text: (§2) The abbreviations used for the harmful plants mean: • ABUTH Abutilon theophrasti ALOMY Alopecurus myosuroides • AVEFA Avena fatua AMARE Amaranthus retroflexus • CYPES Cyperus esculentus DIGSA Digitaria sanguinalis • ECHCG Echinochloa crus-galli HORMU Hordeum murinum • LOLMU Lolium multiflorum LOLRI Lolium rigidum • MATIN Matricaria inodora PHBPU Pharbitis purpurea • POLCO Polygonum convolvulus SETVI Setaria viridis • STEME Stellaria media VERPE Veronica persica • VIOTR Viola tricolor 2. Post-Emergence Herbicidal Action Against Harmful Plants Seeds of monocotyledonous and dicotyledonous weed and crop plants are laid out in sandy loam soil in wood-fiber pots, covered with soil and cultivated in a greenhouse under good growth conditions. 2 to 3 weeks after sowing, the test plants are treated at the one-leaf stage. The compounds of the invention, formulated in the form of wettable powders (WP) or as emulsion concentrates (EC), are then sprayed onto the green parts of the plants in the form of an aqueous suspension or emulsion at a water application rate equivalent to 600 to 800 l/ha, with addition of 0.2% wetting agent. After the test plants have been left to stand in the greenhouse under optimal growth conditions for about 3 weeks, the action of the preparations is assessed visually in comparison to untreated controls (herbicidal action in percent (%): 100% activity=the plants have died, 0% activity=like control plants). […] The tables below illustrate, in an illustrative manner, the post-emergence herbicidal action of the compounds of the invention, the herbicidal activity being stated in percent.

SETVI Setaria viridis [8] = assay: as above; conditions: one-leaf stage, assessed visually after about 3 weeks vs untreated controls
Text: as §2

SETVI Setaria viridis [9] = assay: Pre-emergence herbicidal action against harmful plants; conditions: scored visually after 3 weeks vs untreated controls
Text: as §1

[10] = tested on: ALOMY Alopecurus myosuroides; assay: as above; conditions: scored visually after 3 weeks vs untreated controls
Text: as §1

[11] = tested on: POLCO Polygonum convolvulus; assay: Post-emergence herbicidal action against harmful plants; conditions: one-leaf stage, assessed visually after about 3 weeks vs untreated controls
Text: as §2

MATIN Matricaria inodora [12] = assay: as above; conditions: one-leaf stage, assessed visually after about 3 weeks vs untreated controls
Text: as §2

VERPE Veronica persica = assay: Pre-emergence herbicidal action against harmful plants; conditions: scored visually after 3 weeks vs untreated controls
Text: as §1

[13] = tested on: ECHCG Echinochloa crus-galli; assay: Post-emergence herbicidal action against harmful plants; conditions: one-leaf stage, assessed visually after about 3 weeks vs untreated controls
Text: as §2

[14] = tested on: ALOMY Alopecurus myosuroides; assay: as above; conditions: one-leaf stage, assessed visually after about 3 weeks vs untreated controls
Text: as §2

PHBPU Pharbitis purpurea [15] = assay: as above; conditions: one-leaf stage, assessed visually after about 3 weeks vs untreated controls
Text: as §2

[16] = tested on: ABUTH Abutilon theophrasti; assay: as above; conditions: one-leaf stage, assessed visually after about 3 weeks vs untreated controls
Text: as §2

AVEFA Avena fatua = assay: Pre-emergence herbicidal action against harmful plants; conditions: scored visually after 3 weeks vs untreated controls
Text: as §1

LOLRI Lolium rigidum = assay: as above; conditions: scored visually after 3 weeks vs untreated controls
Text: as §1

PHBPU Pharbitis purpurea [17] = assay: as above; conditions: 80 g/ha, scored visually after 3 weeks vs untreated controls
Text: as §1

[18] = tested on: DIGSA Digitaria sanguinalis; assay: Post-emergence herbicidal action against harmful plants; conditions: one-leaf stage, assessed visually after about 3 weeks vs untreated controls
Text: as §2

Compound | Pre-emergence action at 80 g/ha against POLCO in % [1] | Pre-emergence action at 20 g/ha against DIGSA in % [2] | Pre-emergence action at 80 g/ha against DIGSA in % [2] | Pre-emergence action at 80 g/ha against AMARE in % [3] | Pre-emergence action at 80 g/ha against ECHCG in % [4] | Pre-emergence action at 80 g/ha against ABUTH in % [5] | Pre-emergence action at 20 g/ha against MATIN in % (MATIN Matricaria inodora [6]) | Pre-emergence action at 80 g/ha against MATIN in % (MATIN Matricaria inodora [6]) | Post-emergence action at 5 g/ha against AMARE in % [7] | Post-emergence action at 20 g/ha against AMARE in % [7] | Pre-emergence action at 20 g/ha against AMARE in % [3] | Pre-emergence action at 20 g/ha against ABUTH in % [5] | Pre-emergence action at 80 g/ha against SETVI in % (SETVI Setaria viridis [9]) | Pre-emergence action at 80 g/ha against ALOMY in % [10] | Post-emergence action at 20 g/ha against MATIN in % (MATIN Matricaria inodora [12]) | Post-emergence action at 20 g/ha against ECHCG in % [13] | Post-emergence action at 20 g/ha against ALOMY in % [14] | further results
CCn1nnnc1NC(=O)c1c(F)cc(C(F)(F)F)c(C(=O)NCC(F)F)c1C [Example 2-385] | 90% | 90% | 100% | 100% | 80% | 100% | 80% | 90% | 80% | 90% |  |  |  |  |  |  |  | Post-emergence action at 20 g/ha against SETVI in % (SETVI Setaria viridis [8]): 80%
Cc1c(C(=O)Nc2nnnn2C)c(F)cc(C(F)(F)F)c1C(=O)N(C)C1CC1 [Example 1-97] |  | 80% | 100% | 100% | 90% | 100% | 90% | 100% |  |  | 100% | 100% | 80% | 80% | 80% |  |  | Post-emergence action at 20 g/ha against POLCO in % [11]: 100%
Cn1nnnc1NC(=O)c1c(F)cc(C(F)(F)F)c(C(=O)NC2CC2)c1Cl [Example 1-182] | 90% | 90% | 100% | 100% |  | 100% |  | 100% | 80% | 100% | 100% |  |  | 80% |  | 80% | 80% | Pre-emergence action at 80 g/ha against VERPE in % (VERPE Veronica persica): 100%
CNC(=O)c1c(C(F)(F)F)cc(F)c(C(=O)Nc2nnnn2C)c1C [Example 1-92] |  |  | 100% | 100% |  | 100% | 90% | 90% | 80% | 90% | 90% |  | 100% | 80% |  | 80% |  | Pre-emergence action at 20 g/ha against SETVI in % (SETVI Setaria viridis [9]; 20 g/ha): 80%; Post-emergence action at 20 g/ha against PHBPU in % (PHBPU Pharbitis purpurea [15]): 80%; Post-emergence action at 20 g/ha against SETVI in % (SETVI Setaria viridis [8]): 80%
CCNC(=O)c1c(C(F)(F)F)cc(F)c(C(=O)Nc2nnnn2C)c1Cl [Example 1-181] |  |  | 80% | 100% |  | 100% |  | 100% | 90% | 90% | 100% |  |  |  |  |  |  | Post-emergence action at 20 g/ha against ABUTH in % [16]: 90%
CNC(=O)c1c(C(F)(F)F)cc(F)c(C(=O)Nc2nnnn2C)c1Cl [Example 1-180] |  | 80% | 80% | 100% |  | 100% |  | 100% | 80% | 90% | 100% |  |  |  |  |  |  | Post-emergence action at 20 g/ha against ABUTH in % [16]: 90%
Cc1c(C(=O)Nc2nnnn2C)c(F)cc(C(F)(F)F)c1C(=O)NCC1CC1 [Example 1-384] | 90% | 100% | 100% | 100% | 100% | 100% |  | 80% | 80% | 90% | 100% |  | 90% | 80% |  | 80% | 80% | Pre-emergence action at 80 g/ha against AVEFA in % (AVEFA Avena fatua): 80%; Post-emergence action at 5 g/ha against ECHCG in % ([13]; 5 g/ha): 80%
CCn1nnnc1NC(=O)c1c(F)cc(C(F)(F)F)c(C(=O)N(C)C2CC2)c1C [Example 2-97] |  | 90% | 100% | 100% | 80% | 100% | 90% | 100% |  |  | 100% | 100% |  |  | 80% |  |  | Pre-emergence action at 20 g/ha against VERPE in % (VERPE Veronica persica; 20 g/ha): 80%; Pre-emergence action at 80 g/ha against VERPE in % (VERPE Veronica persica): 80%
CCn1nnnc1NC(=O)c1cc(Cl)c(C(F)(F)F)c(C(=O)NC2CC2)c1C [Example 2-85] | 80% | 80% | 100% | 100% | 80% | 100% | 90% | 100% | 80% | 90% | 100% | 80% | 100% | 90% | 80% |  | 80% | Pre-emergence action at 80 g/ha against AVEFA in % (AVEFA Avena fatua): 80%; Pre-emergence action at 80 g/ha against LOLRI in % (LOLRI Lolium rigidum): 80%; Pre-emergence action at 80 g/ha against PHBPU in % (PHBPU Pharbitis purpurea [17]): 90%; Pre-emergence action at 20 g/ha against ALOMY in % ([10]; 20 g/ha): 80%; Post-emergence action at 20 g/ha against POLCO in % [11]: 80%; Post-emergence action at 20 g/ha against DIGSA in % [18]: 90%; Post-emergence action at 5 g/ha against PHBPU in % (PHBPU Pharbitis purpurea [15]; 5 g/ha): 80%; Post-emergence action at 20 g/ha against PHBPU in % (PHBPU Pharbitis purpurea [15]): 90%
